Patent US5786364A, “Bicyclic isothiourea derivatives useful in therapy” (priority 1995, dated 1998)
Read-outs that look alike come from different tables or passages of the source.

Key:
Format in all cases: biochemical
[1] = biological target: T1, inducible nitric oxide synthase (Homo sapiens, UniProt P35228); experiment: Screen B: screen for inducible nitric oxide synthase inhibiting activity (DLD-1 cell lysate)
T1 construct: Enzyme is prepared, after induction, from the cultured human colorectal carcinoma cell line, DLD-1; endogenous in cells; host or cells: DLD-1 cells (European Collection of Animal Cell Cultures), induced with IL-1, IFN-gamma, IL-6 and TNF-alpha; cell lysate
Description: (§1) Nitric oxide synthase converts ^3 H-L-arginine to ^3 H-L-citrulline which can be separated by cation exchange chromatography and quantified by scintillation counting.
(B) Screen for inducible nitric oxide synthase inhibiting activity
Enzyme is prepared, after induction, from the cultured human colorectal carcinoma cell line, DLD-1 (obtained from the European Collection of Animal Cell Cultures) DLD-1 cells are cultured in RPMI 1640 media supplemented with 10% foetal bovine serum, 4 mM L-glutamine and antibiotics (100 units/ml penicillin G, 100 μg/ml streptomycin & 0.25 μg/ml amphotericin B) and 100 ug/ml kanamycin. Cells are routinely grown in 225 cm^3 flasks containing 35 ml medium kept at 37° C. and in a humidified atmosphere containing 5% CO2.
Nitric oxide synthase is produced by cells in response to interferon-about 250 U/ml IL-1, 1000 U/ml IFNγ, 200 U/ml IL-6, and 200 U/ml TNF-alpha. After a period of 17-20 hours in culture, harvesting of cells is accomplished by scraping the cell sheet from the flask surface into the culture medium. […]
Labelled L-citrulline is separated from labelled L-arginine using Dowex AG-50W. […] After allowing the samples to dry the L-citrulline is quantified by scintillation counting. […]

[2] = biological target: T2, neuronal nitric oxide synthase (Rattus norvegicus, UniProt P29476); experiment: Screen A: screen for neuronal nitric oxide synthase inhibiting activity (conversion of 3H-L-arginine to 3H-L-citrulline)
T2 construct: Enzyme was isolated from rat hippocampus or cerebellum; from tissue; host or cells: hippocampus or cerebellum of male Sprague-Dawley rat, 20,000 g supernatant
Description: as §1
(A) Screen for neuronal nitric oxide synthase inhibiting activity
Enzyme was isolated from rat hippocampus or cerebellum. The cerebellum or hippocampus of a male Sprague-Dawley rat (250-275 g) is removed following CO2 anaesthesia of the animal and decapitation. Cerebellar or hippocampal supernatant is prepared by homogenisation in 50 mM Tris-HCl with 1 mM EDTA buffer (pH 7.2 at 25° C.) and centifugation for 15 minutes at 20,000 g. Residual L-arginine is removed from the supernatant by chromatography through Dowex AG-50W-X8 sodium form and hydrogen form columns successively, and further centrifugation at 1000 g for 30 seconds.
For the assay, 25 μl of the final supernatant is added to each of 96 wells (of a 96 well filter plate) containing 25 μl L-arginine solution (of concentration 18 μM ^1 H-L-arginine, 96 nM ^3 H-L-arginine)and either 25 μl of an assay buffer (50 mM HEPES, 1 mM EDTA, 1.5 mM CaCl2, pH 7.4) or 25 μl of test compound in the buffer at 22° C. To each test tube is added 25 μl of complete assay buffer (50 mM HEPES, 1 mM EDTA, 1.5 mM CaCl2, 1 mM DTT, 100 μM NADPH, 10 μg/ml calmodulin, pH 7.4) to initiate the reaction and the reaction is stopped after 10 minutes by addition of 200 μl of a slurry of termination buffer (20 mM HEPES, 2 mM EDTA, pH 5.5) and Dowex AG-50W-X8 200-400 mesh.
Labelled L-citrulline is separated from labelled L-arginine by filtering each filter plate and 75 ul of each terminated reaction is added to 3 ml of scintillation cocktail. The L-citrulline is then quantified by scintillation counting.
IC50 values for test compounds were initially estimated from the inhibiting activity of 1, 10 and 100 μM solutions of the compounds.

[3] = biological target: T3, endothelial nitric oxide synthase (Homo sapiens, UniProt P29474); experiment: Screen C: screen for endothelial nitric oxide synthase inhibiting activity (HUVEC enzyme)
T3 construct: Enzyme may be isolated from human umbilical vein endothelial cells (HUVECs); host or cells: human umbilical vein endothelial cells (HUVECs)
T3 sequence (P29474 2-1203): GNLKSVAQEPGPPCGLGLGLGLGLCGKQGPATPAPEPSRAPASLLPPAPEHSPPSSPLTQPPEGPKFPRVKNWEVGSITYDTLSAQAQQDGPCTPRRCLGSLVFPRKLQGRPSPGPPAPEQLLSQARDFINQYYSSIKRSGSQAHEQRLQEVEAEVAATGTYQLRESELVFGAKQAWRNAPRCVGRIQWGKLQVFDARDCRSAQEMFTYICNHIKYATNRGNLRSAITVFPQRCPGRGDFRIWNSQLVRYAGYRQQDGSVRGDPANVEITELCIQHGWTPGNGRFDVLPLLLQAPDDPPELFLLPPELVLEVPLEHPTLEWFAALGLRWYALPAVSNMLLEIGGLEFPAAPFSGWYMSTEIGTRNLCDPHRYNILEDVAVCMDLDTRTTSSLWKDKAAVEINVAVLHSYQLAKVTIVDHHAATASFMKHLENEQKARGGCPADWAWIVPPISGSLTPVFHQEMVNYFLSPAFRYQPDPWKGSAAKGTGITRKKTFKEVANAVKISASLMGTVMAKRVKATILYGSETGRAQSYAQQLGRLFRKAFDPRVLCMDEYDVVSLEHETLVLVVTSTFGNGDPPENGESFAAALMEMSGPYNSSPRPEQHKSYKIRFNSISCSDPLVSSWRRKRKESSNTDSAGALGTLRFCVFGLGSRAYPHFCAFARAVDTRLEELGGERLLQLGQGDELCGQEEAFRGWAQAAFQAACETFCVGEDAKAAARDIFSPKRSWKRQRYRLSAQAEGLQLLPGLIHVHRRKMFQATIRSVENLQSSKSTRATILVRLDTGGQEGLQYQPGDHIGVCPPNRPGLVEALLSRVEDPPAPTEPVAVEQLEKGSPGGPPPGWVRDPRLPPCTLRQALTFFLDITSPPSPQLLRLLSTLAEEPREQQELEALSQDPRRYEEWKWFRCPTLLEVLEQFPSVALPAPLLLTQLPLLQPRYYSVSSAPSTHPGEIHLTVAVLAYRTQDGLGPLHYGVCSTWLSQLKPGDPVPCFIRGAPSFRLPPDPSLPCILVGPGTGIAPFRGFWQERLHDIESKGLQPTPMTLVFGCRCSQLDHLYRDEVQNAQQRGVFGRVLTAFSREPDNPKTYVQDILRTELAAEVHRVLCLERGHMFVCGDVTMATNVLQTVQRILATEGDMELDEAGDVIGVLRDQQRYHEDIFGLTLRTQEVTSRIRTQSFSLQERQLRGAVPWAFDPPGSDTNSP
Excerpt: as §1
(C) Screen for endothelial nitric oxide synthase inhibiting activity
HUVECs were purchased from Clonetics Corp (San Diego, Calif., U.S.A.) and cultured to confluency. Cells can be maintained to passage 35-40 without significant loss of yield of nitric oxide synthase. When cells reach confluency, they are resuspended in Dulbecco's phosphate buffered saline, centrifuged at 800 rpm for 10 mins, the cell pellet homogenised in ice-cold 50 mM Tris-HCl, 1 mM EDTA, 10% glycerol, 1 mM phenylmethylsulphonylfluoride, 2 μM leupeptin at pH 4.2. Following centrifugation at 34,000 rpm for 60 mins, the pellet is solubilised in the homogenisation buffer which also contains 20 mM CHAPS. After a 30 min incubation on ice, the suspension is centrifuged at 34,000 rpm for 30 mins. The resulting supernatant is stored at -80° C. until use. […]
Labelled L-citrulline is separated from labelled L-arginine by filtration into another 96 well plate and 75 ul of each terminated reaction is added to 3 ml of scintillation cocktail. The L-citrulline is then quantified by scintillation counting. […]

T2 sequence (P29476 whole entry): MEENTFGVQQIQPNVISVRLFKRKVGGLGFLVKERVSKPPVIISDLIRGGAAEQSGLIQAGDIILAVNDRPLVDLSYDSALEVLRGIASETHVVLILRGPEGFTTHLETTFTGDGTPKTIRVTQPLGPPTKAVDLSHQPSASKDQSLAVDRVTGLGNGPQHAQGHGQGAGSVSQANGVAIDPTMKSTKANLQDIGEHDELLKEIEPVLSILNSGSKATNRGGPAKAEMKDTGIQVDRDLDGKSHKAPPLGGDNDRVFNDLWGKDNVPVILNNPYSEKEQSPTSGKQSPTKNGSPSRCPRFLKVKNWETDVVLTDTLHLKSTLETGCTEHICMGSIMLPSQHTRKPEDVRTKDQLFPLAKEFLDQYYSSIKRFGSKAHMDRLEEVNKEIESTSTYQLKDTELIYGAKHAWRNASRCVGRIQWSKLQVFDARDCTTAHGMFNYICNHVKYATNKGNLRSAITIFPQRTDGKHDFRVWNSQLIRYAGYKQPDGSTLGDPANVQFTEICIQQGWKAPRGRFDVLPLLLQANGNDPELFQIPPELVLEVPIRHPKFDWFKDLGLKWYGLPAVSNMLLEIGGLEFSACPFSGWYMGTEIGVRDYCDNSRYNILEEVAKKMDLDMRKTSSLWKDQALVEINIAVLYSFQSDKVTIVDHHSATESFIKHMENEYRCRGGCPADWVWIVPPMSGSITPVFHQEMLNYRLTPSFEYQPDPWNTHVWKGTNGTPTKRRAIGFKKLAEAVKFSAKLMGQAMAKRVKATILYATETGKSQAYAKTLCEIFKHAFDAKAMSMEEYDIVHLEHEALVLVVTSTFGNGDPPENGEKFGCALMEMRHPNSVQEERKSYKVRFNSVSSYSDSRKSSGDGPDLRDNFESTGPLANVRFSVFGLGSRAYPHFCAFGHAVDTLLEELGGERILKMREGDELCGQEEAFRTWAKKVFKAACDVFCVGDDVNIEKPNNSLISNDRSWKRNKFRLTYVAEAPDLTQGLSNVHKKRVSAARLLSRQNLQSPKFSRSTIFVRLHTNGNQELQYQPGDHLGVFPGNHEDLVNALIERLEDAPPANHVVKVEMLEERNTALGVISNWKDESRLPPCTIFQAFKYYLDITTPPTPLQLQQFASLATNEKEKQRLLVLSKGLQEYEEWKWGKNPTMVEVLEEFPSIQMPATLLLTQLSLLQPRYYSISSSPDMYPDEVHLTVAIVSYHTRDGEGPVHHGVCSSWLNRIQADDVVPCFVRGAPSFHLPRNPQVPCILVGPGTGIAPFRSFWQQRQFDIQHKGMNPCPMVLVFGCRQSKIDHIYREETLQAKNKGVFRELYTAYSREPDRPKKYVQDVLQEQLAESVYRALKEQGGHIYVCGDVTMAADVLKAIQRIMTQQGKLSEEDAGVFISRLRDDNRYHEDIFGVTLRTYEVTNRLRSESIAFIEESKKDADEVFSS

SMILES: N=C(N)NN [Aminoguanidine, reference compound]
- IC50 ([1]; inducible isoform, DLD-1 cell lysate, standard to verify the procedure, read-out: IC50 (50% inhibitory concentration) (Screen B standard)): 10 µM

SMILES: CCSC(=N)Nc1ccc2c(c1)CNCC2 [Example 1, N-(1,2,3,4-tetrahydroisoquinolin-7-yl)carbamimidothioic acid ethyl ester]
- IC50 [2]: < 10 µM
- IC50 in Screen B relative to that obtained in Screen A (selectivity) ([1]; Screen B (macrophage isoform) IC50 / Screen A (neuronal) IC50): more than 10 times
- IC50 in Screen C relative to that obtained in Screen A (selectivity) ([3]; Screen C (endothelial isoform) IC50 / Screen A (neuronal) IC50): more than 10 times

SMILES: CCSC(=N)Nc1ccc2c(c1)CC(N(C)Cc1cccc(Cl)c1)C2 (stereo not shown) [Example 2, N-5-(2-(((3-chlorophenyl)methyl)(methyl)amino)indanyl)carbamimidothioic acid, ethyl ester]
- IC50 ([2]; neuronal isoform, rat hippocampus or cerebellum supernatant, read-out: IC50 (Screen A)): < 10 µM

SMILES: NC(=NCCC[C@H](N)C(=O)O)N[N+](=O)[O-] [N-nitro-L-arginine, reference compound]
- inhibition at 1 µM ([2]; at a concentration of 1 μM, cerebellar supernatant, typical experiment, read-out: inhibition of nitric oxide synthase (Screen A reference standard)): 80%
- inhibition at 1 µM ([3]; at a concentration of 1 μM, typical experiment, read-out: inhibition of nitric oxide synthase (Screen C reference standard)): 70 to 90%
